Source: patent publication EP4653006A1, “NOVEL MIXTURE OF ACTIVE INGREDIENTS, COMPOSITIONS CONTAINING THEM, AND THEIR USE AGAINST ALLERGY AND/OR INFLAMMATION” (Global Pharmacies Partner S.R.L. in Forma Abbreviata G.P.P. …, priority 2024, dated 2025)

Tests used:
RBL-2H3 cells = assay: degranulation (β-hexosaminidase release) in sensitized/stimulated RBL-2H3 cells; type: cell-based, rat; conditions: positive control 20 µM
Protocol: The antiallergic activity of the tested sample of mixture M was evaluated by measuring its ability to prevent degranulation processes in a rat leukemia cell line (RBL-2H3), widely used as a model simulating mast cells in immunological and allergological studies.
(§1) The RBL-2H3 cells were first sensitized and then stimulated to induce degranulation.
The test was conducted on RBL-2H3 cells grown in DMEM (Dulbecco's modified Eagle medium) containing 10% fetal bovine serum (FBS) and 1% antibiotics (penicillin and streptomycin) and incubated in standard culture conditions (37°C, 5% CO2). […]
The medium was then recovered and separated from the cells and incubated with 4-nitrophenyl-N-acetyl-β-D-glucosamide. The reaction was stopped with carbonate buffer and the absorbance was measured by spectrophotometric reading at 405 nm. Degranulation was calculated as the percentage of β-hexosaminidase relative to non-sensitized (NS) cells as follows: Degranulation (%) = (ODX)/(ODNS)⋅100 [formula]
The measured absorbance (optical density, OD) is directly proportional to the amount of β-hexosaminidase present in the analyzed fluids, which in turn correlates positively with the levels of histamine released during the degranulation phase and is therefore an indicative marker of the degranulation process. […] The values are expressed as means ± standard deviation. […]

TNFα = TNFα release by ELISA in sensitized/stimulated RBL-2H3 cells; type: cell-based, rat; conditions: positive control 20 µM
Protocol: The anti-inflammatory action was instead evaluated, always in the same cell line, by measuring the ability of the sample to inhibit the release of tumor necrosis factor alpha (TNFα).
as §1
The test was conducted on RBL-2H3 cells grown in DMEM (Dulbecco's modified Eagle medium) containing 10% fetal bovine serum (FBS) and 1% antibiotics (penicillin and streptomycin) and incubated in standard culture conditions (37°C, 5% CO2). RBL-2H3 cells are widely used in allergy and immunology research, as, like mast cells, they express FCεRI and, following cross-linking between IgE bound to FCεRI and allergens, they undergo degranulation. In this way, therefore, they simulate the behavior of mast cells and basophils in their response to an immunological stimulus.
The supernatant recovered from the cells was also used for the dosage of TNFα performed by ELISA (Enzyme-Linked Immunosorbent Assay), a very widespread biochemical technique used for the quantification of proteins and peptides. In an ELISA assay, a specific […] for TNFα is immobilized on a solid surface (the bottom of a well) to which the assay medium is added. Detection is done by means of a biotinylated secondary antibody and then reacted with streptavidin-HRP. The colorimetric reaction is proportional to the amount of TNFα present. The results are read by spectrophotometer at 450 nm. The values obtained were then interpolated into a standard curve of TNFα.
The absorbance (optical density, OD) measured at 450 nm is directly proportional to the amount of TNFα produced by the tissues. To calculate the concentrations of TNFα, the OD values obtained were interpolated into a standard curve of TNFα. The percentages were calculated with respect to the non-sensitized and non-stimulated cells (NS). The values are expressed as means ± standard deviation. Statistical processing of the data was performed by Student's t-test. Values of p<0.05 are considered significant. […]

C=C1CC[C@H]2C(=C)CC[C@H]3C(=C)C(=O)O[C@@H]3[C@@H]12 [PC, Dehydrocostolactone]
protection (% vs NC), reduction in degranulation (RBL-2H3 cells): 80.8%
β-hexosaminidase (% vs NS) (RBL-2H3 cells; anti-DNP IgE / DNP-HSA, NC = 1,274.6): 244.8%
protection (% vs NC), reduction in TNFα release (TNFα): 19.5%
TNFα (% vs NS) (TNFα; NC = 227.8): 183.4%
TNFα (TNFα; NC = 248.8): 200.3 pg/mL
